In ChEMBL document CHEMBL1137360, “Structure-activity relationships of a novel series of urotensin II analogues: identification of a urotensin II antagonist” (J Med Chem, 2006):
Active and inactive are the calls of the source. The calls are words filed in the database; no cut-off is given here.

What was measured:
Rattus norvegicus [1] = species: Rattus norvegicus; assay: Agonist activity in rat aortic ring contraction assay relative to 1 uM phenylephrine; assay type: functional; details: Aorta
[2] = target: T1, Urotensin-2 receptor (Rattus norvegicus) (UniProt P49684); assay: Antagonist activity against 0.1 uM human urotensin-2-induced contraction of rat aortic ring; assay type: functional, tissue-based; set-up: scale not given: the % may be the effect or the level left; details: Aorta
T1 sequence (whole entry): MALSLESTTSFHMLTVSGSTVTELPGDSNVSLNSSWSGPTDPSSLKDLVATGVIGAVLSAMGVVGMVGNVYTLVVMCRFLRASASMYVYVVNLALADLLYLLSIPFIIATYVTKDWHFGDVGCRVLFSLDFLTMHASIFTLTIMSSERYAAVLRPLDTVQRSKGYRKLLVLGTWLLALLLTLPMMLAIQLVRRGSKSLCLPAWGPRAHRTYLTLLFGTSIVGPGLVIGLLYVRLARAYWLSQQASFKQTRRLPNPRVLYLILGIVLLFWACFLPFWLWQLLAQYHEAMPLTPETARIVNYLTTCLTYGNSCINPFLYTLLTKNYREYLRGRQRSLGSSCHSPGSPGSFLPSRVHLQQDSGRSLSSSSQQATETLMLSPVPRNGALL

Urotensin-2 receptor [3] = target: T2, Urotensin-2 receptor (Homo sapiens, UniProt Q9UKP6); assay: Displacement of [125I]human urotensin-2 from human GPR14 transfected in CHO cells; assay type: cell-based
T2 sequence (Q9UKP6 whole entry): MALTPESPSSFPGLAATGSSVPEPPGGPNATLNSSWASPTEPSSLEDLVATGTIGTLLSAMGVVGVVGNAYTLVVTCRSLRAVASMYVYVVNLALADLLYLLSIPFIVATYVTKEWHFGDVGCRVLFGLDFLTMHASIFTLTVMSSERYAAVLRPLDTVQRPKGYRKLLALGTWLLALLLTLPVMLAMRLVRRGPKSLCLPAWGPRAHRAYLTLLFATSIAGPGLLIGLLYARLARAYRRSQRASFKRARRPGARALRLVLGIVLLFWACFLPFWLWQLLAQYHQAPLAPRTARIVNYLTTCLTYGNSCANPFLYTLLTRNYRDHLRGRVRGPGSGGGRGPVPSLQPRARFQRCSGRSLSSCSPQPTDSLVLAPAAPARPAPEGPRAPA

Urotensin-2 receptor [4] = target: T3, Urotensin-2 receptor (Rattus norvegicus, UniProt P49684); assay: Antagonist potency against human urotensin-2-induced contraction of rat aortic ring; assay type: functional, tissue-based, Aorta; details: read-out: pA2 (converted)
T3 sequence (P49684 whole entry): T1 sequence (whole entry)

Rattus norvegicus [5] = species: Rattus norvegicus; assay: Agonist activity in rat aortic ring contraction assay; assay type: functional; details: Aorta

## CC(C)[C@H](NC(=O)[C@@H]1CSSC[C@H](NC(=O)[C@@H](N)CC(=O)O)C(=O)N[C@@H](CC2CCCCC2)C(=O)N[C@@H](Cc2c[nH]c3ccccc23)C(=O)N[C@@H](CCCCN)C(=O)N[C@@H](Cc2ccc(O)cc2)C(=O)N1)C(=O)O
Rattus norvegicus [1]
  Activity: inactive
[2]
  Activity: 95.7%
Urotensin-2 receptor [3]
  Ki: 407 nM
Urotensin-2 receptor [4]
  Kb: 813 nM
Rattus norvegicus [5]
  EC50: > 10000 nM
